Test system: 475296-252-R-J1-PDC spheroid viability
Experiment: Anticancer human tumor 475296-252-R-J1-PDC patient-derived rectal carcinoma cell line growth inhibition [PI3K]
Details: spheroids with HUVEC and MSC; for IC50: curve of first compound; for viability, T/C: stronger effect = lower value
In short: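 High-throughput combination screen: PI3K inhibitors crossed with targeted small molecules on complex spheroids of tumor cells, HUVEC and MSCs at 37 degrees C, 5% CO2. Top concentration was at or near clinical Cmax (otherwise 10 microM), with half-log decrements.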
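Note: spheroids exposed to agents for seven days before readout.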

With `CC1(C)CCC(Nc2ncc(C(F)(F)F)c(-c3c[nH]c4c(P(C)(C)=O)c(C#N)ccc34)n2)CN1` (centres undefined) + CC(Nc1ncnc2nc[nH]c12)c1cc2cccc(Cl)c2c(=O)n1-c1ccccc1 the IC50 (second compound 0.0316 µM) was greater than 10 µM, the IC50 (second compound 0.1 µM) was greater than 10 µM and the IC50 (second compound 0.316 µM) was greater than 10 µM. The IC50 (second compound 1 µM) was greater than 10 µM, the IC50 (second compound 3.16 µM) was greater than 10 µM and the IC50 (second compound 10 µM) was 9.12 µM. For the same compound, the viability, T/C (second compound 0.0316 µM, first compound 0.0316 µM) was 97.6%, the viability, T/C (second compound 0.0316 µM, first compound 0.1 µM) was 93% and the viability, T/C (second compound 0.0316 µM, first compound 0.316 µM) was 93.1%. For the same compound, the viability, T/C (second compound 0.0316 µM, first compound 1 µM) was 129%, the viability, T/C (second compound 0.0316 µM, first compound 3.16 µM) was 160% and the viability, T/C (second compound 0.0316 µM, first compound 10 µM) was 64.5%. The viability, T/C (second compound 0.1 µM, first compound 0.0316 µM) was 98%, the viability, T/C (second compound 0.1 µM, first compound 0.1 µM) was 91.5% and the viability, T/C (second compound 0.1 µM, first compound 0.316 µM) was 95.1%. For the same compound, the viability, T/C (second compound 0.1 µM, first compound 1 µM) was 117%, the viability, T/C (second compound 0.1 µM, first compound 3.16 µM) was 159% and the viability, T/C (second compound 0.1 µM, first compound 10 µM) was 52.2%. For the same compound, the viability, T/C (second compound 0.316 µM, first compound 0.0316 µM) was 93.8%, the viability, T/C (second compound 0.316 µM, first compound 0.1 µM) was 86.8% and the viability, T/C (second compound 0.316 µM, first compound 0.316 µM) was 114%. For the same compound, the viability, T/C (second compound 0.316 µM, first compound 1 µM) was 120%, the viability, T/C (second compound 0.316 µM, first compound 3.16 µM) was 164% and the viability, T/C (second compound 0.316 µM, first compound 10 µM) was 55.7%. The viability, T/C (second compound 1 µM, first compound 0.0316 µM) was 98.8%, the viability, T/C (second compound 1 µM, first compound 0.1 µM) was 92.9% and the viability, T/C (second compound 1 µM, first compound 0.316 µM) was 86.5%. The viability, T/C (second compound 1 µM, first compound 1 µM) was 139%, the viability, T/C (second compound 1 µM, first compound 3.16 µM) was 166% and the viability, T/C (second compound 1 µM, first compound 10 µM) was 54.1%. It also gave a viability, T/C (second compound 3.16 µM, first compound 0.0316 µM) of 91.9%, a viability, T/C (second compound 3.16 µM, first compound 0.1 µM) of 86% and a viability, T/C (second compound 3.16 µM, first compound 0.316 µM) of 89.6%. For the same compound, the viability, T/C (second compound 3.16 µM, first compound 1 µM) was 113%, the viability, T/C (second compound 3.16 µM, first compound 3.16 µM) was 154% and the viability, T/C (second compound 3.16 µM, first compound 10 µM) was 53.3%. For the same compound, the viability, T/C (second compound 10 µM, first compound 0.0316 µM) was 88.7%, the viability, T/C (second compound 10 µM, first compound 0.1 µM) was 81.6% and the viability, T/C (second compound 10 µM, first compound 0.316 µM) was 102%. For the same compound, the viability, T/C (second compound 10 µM, first compound 1 µM) was 128%, the viability, T/C (second compound 10 µM, first compound 3.16 µM) was 152% and the viability, T/C (second compound 10 µM, first compound 10 µM) was 44.7%.

Compound `Cn1cnc2c(F)c(Nc3ccc(Br)cc3Cl)c(C(=O)NOCCO)cc21` + COc1c(OCCCN2CCOCC2)ccc2c3n(c(=NC(=O)c4cnc(N)nc4)nc12)CCN3 has an IC50 (second compound 0.00316 µM) of 2.05 µM, an IC50 (second compound 0.01 µM) of 0.469 µM and an IC50 (second compound 0.0316 µM) of 0.162 µM. The IC50 (second compound 0.1 µM) was 0.0942 µM, the IC50 (second compound 0.316 µM) was 0.0271 µM and the IC50 (second compound 1 µM) was less than 0.00949 µM. For the same compound, the viability, T/C (second compound 0.00316 µM, first compound 0.00949 µM) was 88%, the viability, T/C (second compound 0.00316 µM, first compound 0.03 µM) was 75.5% and the viability, T/C (second compound 0.00316 µM, first compound 0.0949 µM) was 73.4%. The viability, T/C (second compound 0.00316 µM, first compound 0.3 µM) was 60.6%, the viability, T/C (second compound 0.00316 µM, first compound 0.949 µM) was 62.5% and the viability, T/C (second compound 0.00316 µM, first compound 3 µM) was 44.2%. The viability, T/C (second compound 0.01 µM, first compound 0.00949 µM) was 90.6%, the viability, T/C (second compound 0.01 µM, first compound 0.03 µM) was 90% and the viability, T/C (second compound 0.01 µM, first compound 0.0949 µM) was 63%. The viability, T/C (second compound 0.01 µM, first compound 0.3 µM) was 53.3%, the viability, T/C (second compound 0.01 µM, first compound 0.949 µM) was 53.8% and the viability, T/C (second compound 0.01 µM, first compound 3 µM) was 36.9%. For the same compound, the viability, T/C (second compound 0.0316 µM, first compound 0.00949 µM) was 84.1%, the viability, T/C (second compound 0.0316 µM, first compound 0.03 µM) was 63.3% and the viability, T/C (second compound 0.0316 µM, first compound 0.0949 µM) was 56.3%. The viability, T/C (second compound 0.0316 µM, first compound 0.3 µM) was 42.6%, the viability, T/C (second compound 0.0316 µM, first compound 0.949 µM) was 37% and the viability, T/C (second compound 0.0316 µM, first compound 3 µM) was 18.8%. For the same compound, the viability, T/C (second compound 0.1 µM, first compound 0.00949 µM) was 65%, the viability, T/C (second compound 0.1 µM, first compound 0.03 µM) was 67.6% and the viability, T/C (second compound 0.1 µM, first compound 0.0949 µM) was 48.7%. For the same compound, the viability, T/C (second compound 0.1 µM, first compound 0.3 µM) was 25.6%, the viability, T/C (second compound 0.1 µM, first compound 0.949 µM) was 16.5% and the viability, T/C (second compound 0.1 µM, first compound 3 µM) was 6.68%. The viability, T/C (second compound 0.316 µM, first compound 0.00949 µM) was 55.9%, the viability, T/C (second compound 0.316 µM, first compound 0.03 µM) was 49.8% and the viability, T/C (second compound 0.316 µM, first compound 0.0949 µM) was 29.4%. The viability, T/C (second compound 0.316 µM, first compound 0.3 µM) was 10.7%, the viability, T/C (second compound 0.316 µM, first compound 0.949 µM) was 5.48% and the viability, T/C (second compound 0.316 µM, first compound 3 µM) was 2.56%. It also gave a viability, T/C (second compound 1 µM, first compound 0.00949 µM) of 47.1%, a viability, T/C (second compound 1 µM, first compound 0.03 µM) of 41.5% and a viability, T/C (second compound 1 µM, first compound 0.0949 µM) of 22.2%. It also gave a viability, T/C (second compound 1 µM, first compound 0.3 µM) of 9.1%, a viability, T/C (second compound 1 µM, first compound 0.949 µM) of 5.23% and a viability, T/C (second compound 1 µM, first compound 3 µM) of 3.35%.

Reference: PubChem BioAssay AID1963980 (Molecular Pharmacology Branch, DTP, NCI, 2024)
